Laboratory results reported in PubChem BioAssay (NCI).
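All cell lines were grown in 96-well plates and treated with compound for 48 hours. GI50: concentration for 50% inhibition of growth. TGI denotes the concentration required for complete inhibition of growth.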

How the values were obtained:
Assay in all cases: growth of human tumour cells (NCI), 48 h
786-0 renal = tested on: 786-0 renal
UO-31 renal = tested on: UO-31 renal
ACHN renal = tested on: ACHN renal
CAKI-1 renal = tested on: CAKI-1 renal
SNB-75 CNS = tested on: SNB-75 CNS
SK-OV-3 ovarian = tested on: SK-OV-3 ovarian
A549 NSCLC = tested on: A549 NSCLC
KM12 colon = tested on: KM12 colon
PC-3 prostate = tested on: PC-3 prostate
UACC-257 melanoma = tested on: UACC-257 melanoma
SN12C renal = tested on: SN12C renal
RPMI-8226 leukemia = tested on: RPMI-8226 leukemia
HOP-92 NSCLC = tested on: HOP-92 NSCLC
RXF 393 renal = tested on: RXF 393 renal
HCT-15 colon = tested on: HCT-15 colon
HS 578T breast = tested on: HS 578T breast
IGROV1 ovarian = tested on: IGROV1 ovarian
A498 renal = tested on: A498 renal
UACC-62 melanoma = tested on: UACC-62 melanoma
SK-MEL-28 melanoma = tested on: SK-MEL-28 melanoma
COLO 205 colon = tested on: COLO 205 colon
MALME-3M melanoma = tested on: MALME-3M melanoma
MDA-MB-231 breast = tested on: MDA-MB-231 breast
TK-10 renal = tested on: TK-10 renal
SF-268 CNS = tested on: SF-268 CNS
CCRF-CEM leukemia = tested on: CCRF-CEM leukemia
LOX IMVI melanoma = tested on: LOX IMVI melanoma
SK-MEL-5 melanoma = tested on: SK-MEL-5 melanoma
MDA-MB-435 = tested on: MDA-MB-435
NCI-H460 lung = tested on: NCI-H460 lung
HCC-2998 colon = tested on: HCC-2998 colon
U251 CNS = tested on: U251 CNS
DU-145 prostate = tested on: DU-145 prostate
K-562 leukemia = tested on: K-562 leukemia
SW-620 colon = tested on: SW-620 colon
SF-295 CNS = tested on: SF-295 CNS
HOP-62 NSCLC = tested on: HOP-62 NSCLC
OVCAR-4 ovarian = tested on: OVCAR-4 ovarian
HT29 colon = tested on: HT29 colon
NCI-H522 lung = tested on: NCI-H522 lung
NCI/ADR-RES ovarian = tested on: NCI/ADR-RES ovarian
NCI-H23 lung = tested on: NCI-H23 lung
HL-60(TB) leukemia = tested on: HL-60(TB) leukemia
HCT-116 colon = tested on: HCT-116 colon
MOLT-4 leukemia = tested on: MOLT-4 leukemia
SNB-19 CNS = tested on: SNB-19 CNS
MCF7 breast = tested on: MCF7 breast
T-47D breast = tested on: T-47D breast
SF-539 CNS = tested on: SF-539 CNS
OVCAR-5 ovarian = tested on: OVCAR-5 ovarian
OVCAR-8 ovarian = tested on: OVCAR-8 ovarian
NCI-H226 lung = tested on: NCI-H226 lung
SR leukemia = tested on: SR leukemia
EKVX NSCLC = tested on: EKVX NSCLC
SK-MEL-2 melanoma = tested on: SK-MEL-2 melanoma
OVCAR-3 ovarian = tested on: OVCAR-3 ovarian
BT-549 breast = tested on: BT-549 breast

Structure (SMILES): CN(C)c1ccc(N=Nc2ccccn2)c(O)c1
- GI50 (786-0 renal): 246 nM
- TGI (786-0 renal): 15.9 µM
- GI50 (UO-31 renal): 215 nM
- GI50 (ACHN renal): 271 nM
- TGI (ACHN renal): > 100 µM
- GI50 (CAKI-1 renal): 344 nM
- TGI (CAKI-1 renal): > 100 µM
- GI50 (SNB-75 CNS): 453 nM
- TGI (SNB-75 CNS): 96.9 µM
- GI50 (SK-OV-3 ovarian): 420 nM
- TGI (SK-OV-3 ovarian): > 28.3 µM
- GI50 (A549 NSCLC): 478 nM
- TGI (A549 NSCLC): > 100 µM
- GI50 (KM12 colon): 465 nM
- TGI (KM12 colon): > 76.9 µM
- GI50 (PC-3 prostate): 416 nM
- TGI (PC-3 prostate): > 100 µM
- GI50 (UACC-257 melanoma): 1240 nM
- TGI (UACC-257 melanoma): 9.04 µM
- GI50 (SN12C renal): 396 nM
- TGI (SN12C renal): > 100 µM
- GI50 (RPMI-8226 leukemia): 348 nM
- TGI (RPMI-8226 leukemia): > 100 µM
- GI50 (HOP-92 NSCLC): 666 nM
- TGI (HOP-92 NSCLC): 50.2 µM
- GI50 (RXF 393 renal): 229 nM
- TGI (RXF 393 renal): 929 nM
- GI50 (HCT-15 colon): 112 nM
- TGI (HCT-15 colon): > 100 µM
- GI50 (HS 578T breast): 3.53 µM
- TGI (HS 578T breast): > 85.5 µM
- GI50 (IGROV1 ovarian): 317 nM
- TGI (IGROV1 ovarian): > 100 µM
- GI50 (A498 renal): 3.02 µM
- TGI (A498 renal): 19.1 µM
- GI50 (UACC-62 melanoma): 369 nM
- GI50 (SK-MEL-28 melanoma): 672 nM
- TGI (SK-MEL-28 melanoma): > 100 µM
- GI50 (COLO 205 colon): 345 nM
- TGI (COLO 205 colon): > 34.8 µM
- GI50 (MALME-3M melanoma): 1440 nM
- TGI (MALME-3M melanoma): > 100 µM
- GI50 (MDA-MB-231 breast): 446 nM
- TGI (MDA-MB-231 breast): > 100 µM
- GI50 (TK-10 renal): 177 nM
- TGI (TK-10 renal): 43.9 µM
- GI50 (SF-268 CNS): 318 nM
- TGI (SF-268 CNS): > 100 µM
- GI50 (CCRF-CEM leukemia): 97.9 nM
- GI50 (LOX IMVI melanoma): 258 nM
- TGI (LOX IMVI melanoma): > 100 µM
- GI50 (SK-MEL-5 melanoma): 433 nM
- TGI (SK-MEL-5 melanoma): 3.35 µM
- GI50 (MDA-MB-435): 556 nM
- TGI (MDA-MB-435): > 100 µM
- GI50 (NCI-H460 lung): 296 nM
- TGI (NCI-H460 lung): > 32.1 µM
- GI50 (HCC-2998 colon): 376 nM
- TGI (HCC-2998 colon): > 100 µM
- GI50 (U251 CNS): 258 nM
- TGI (U251 CNS): > 100 µM
- GI50 (DU-145 prostate): 481 nM
- TGI (DU-145 prostate): > 100 µM
- GI50 (K-562 leukemia): 355 nM
- TGI (K-562 leukemia): > 100 µM
- GI50 (SW-620 colon): 419 nM
- TGI (SW-620 colon): > 100 µM
- GI50 (SF-295 CNS): 359 nM
- TGI (SF-295 CNS): > 100 µM
- GI50 (HOP-62 NSCLC): 311 nM
- TGI (HOP-62 NSCLC): > 54 µM
- GI50 (OVCAR-4 ovarian): 164 nM
- TGI (OVCAR-4 ovarian): 24.6 µM
- GI50 (HT29 colon): 415 nM
- TGI (HT29 colon): > 100 µM
- GI50 (NCI-H522 lung): 372 nM
- GI50 (NCI/ADR-RES ovarian): 281 nM
- TGI (NCI/ADR-RES ovarian): > 27.6 µM
- GI50 (NCI-H23 lung): 564 nM
- TGI (NCI-H23 lung): > 100 µM
- GI50 (HL-60(TB) leukemia): 228 nM
- TGI (HL-60(TB) leukemia): 1460 nM
- GI50 (HCT-116 colon): 254 nM
- TGI (HCT-116 colon): > 71.7 µM
- GI50 (MOLT-4 leukemia): 243 nM
- TGI (MOLT-4 leukemia): > 87.8 µM
- GI50 (SNB-19 CNS): 501 nM
- TGI (SNB-19 CNS): > 100 µM
- GI50 (MCF7 breast): 271 nM
- TGI (MCF7 breast): > 100 µM
- GI50 (T-47D breast): 419 nM
- TGI (T-47D breast): > 49.1 µM
- GI50 (SF-539 CNS): 355 nM
- TGI (SF-539 CNS): 8.44 µM
- GI50 (OVCAR-5 ovarian): 992 nM
- TGI (OVCAR-5 ovarian): > 100 µM
- GI50 (OVCAR-8 ovarian): 321 nM
- TGI (OVCAR-8 ovarian): > 100 µM
- GI50 (NCI-H226 lung): 515 nM
- TGI (NCI-H226 lung): 8.67 µM
- GI50 (SR leukemia): 123 nM
- TGI (SR leukemia): > 100 µM
- GI50 (EKVX NSCLC): 200 nM
- TGI (EKVX NSCLC): 14.4 µM
- GI50 (SK-MEL-2 melanoma): 2790 nM
- TGI (SK-MEL-2 melanoma): > 100 µM
- GI50 (OVCAR-3 ovarian): 300 nM
- TGI (OVCAR-3 ovarian): > 100 µM
- GI50 (BT-549 breast): 391 nM
- TGI (BT-549 breast): > 100 µM
